Among the data in patent US12723063B2, “GIPR-agonist compounds” (Eli Lilly and Company, priority 2019, dated 2026) are Ki values, retold here.

*1 amine or outer side, *2 acyl side, *3 side chain or, on linkers, in order; H or OH if unused. Where a SMILES comes first, the peptide text is derived from it. Side-chain parts run from the residue outwards. [ ]: non-standard residue; d: D form. The star is where a group is joined. C20 diacid = O=C(O)CCCCCCCCCCCCCCCCCCC(=O)*; γGlu = O=C(O)[C@H](CCC(=O)[*:2])N[*:1]; 4Pal = N[C@@H](Cc1ccncc1)C(=O)O; αMeL = CC(C)C[C@](C)(N)C(=O)O; AEEA = NCCOCCOCC(=O)O; Aib = CC(C)(N)C(=O)O

The assay deals with T1, human GLP-1R (Homo sapiens, UniProt P43220).
T1 construct: expressed in transfected cells; crude membranes
T1 sequence (P43220 24-463): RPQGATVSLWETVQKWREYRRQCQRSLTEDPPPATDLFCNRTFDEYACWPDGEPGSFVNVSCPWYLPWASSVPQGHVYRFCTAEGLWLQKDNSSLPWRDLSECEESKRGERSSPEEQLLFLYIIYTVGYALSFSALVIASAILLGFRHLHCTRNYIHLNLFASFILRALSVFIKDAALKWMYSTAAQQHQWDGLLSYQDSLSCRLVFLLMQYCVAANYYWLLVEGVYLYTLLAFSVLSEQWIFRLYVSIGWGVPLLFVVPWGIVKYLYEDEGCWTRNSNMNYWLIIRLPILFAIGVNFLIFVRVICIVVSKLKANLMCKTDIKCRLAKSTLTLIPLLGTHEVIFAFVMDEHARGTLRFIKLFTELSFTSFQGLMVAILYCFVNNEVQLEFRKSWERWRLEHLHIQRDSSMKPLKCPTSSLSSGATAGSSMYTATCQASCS
Kind of assay: [125I]-GLP-1 binding, SPA with WGA beads, 0.1% bacitracin. To be noted: geometric mean, read-out: hGLP1R Ki. In outline: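 Binding buffer was 25 mM HEPES pH 7.4 with 2.5 mM CaCl2, 1 mM MgCl2, 0.1% (w/v) bacitracin, 0.003% Tween-20 and EDTA-free protease inhibitors. Four-parameter regression gave IC50, converted to Ki (geometric mean, SEM, n independent days).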

As to `CC[C@H](C)[C@H](NC(=O)[C@H](Cc1ccccc1)NC(=O)[C@@H](NC(=O)CNC(=O)[C@H](CCC(=O)O)NC(=O)C(C)(C)NC(=O)[C@@H](N)Cc1ccc(O)cc1)[C@@H](C)O)C(=O)N[C@@H](CO)C(=O)N[C@@H](CC(=O)O)C(=O)N[C@@H](Cc1ccc(O)cc1)C(=O)N[C@@H](CO)C(=O)N[C@H](C(=O)N[C@@](C)(CC(C)C)C(=O)N[C@@H](CC(C)C)C(=O)N[C@@H](CC(=O)O)C(=O)N[C@@H](CCCCN)C(=O)N[C@@H](CCCCNC(=O)COCCOCCNC(=O)COCCOCCNC(=O)CC[C@H](NC(=O)CCCCCCCCCCCCCCCCCCC(=O)O)C(=O)O)C(=O)N[C@@H](Cc1c[nH]cn1)C(=O)N[C@@H](CCC(N)=O)C(=O)NC(C)(C)C(=O)N[C@@H](CC(=O)O)C(=O)N[C@@H](Cc1ccccc1)C(=O)N[C@H](C(=O)N[C@@H](CCC(=O)O)C(=O)N[C@@H](Cc1ccncc1)C(=O)N[C@@H](CC(C)C)C(=O)N[C@@H](CC(C)C)C(=O)N[C@@H](CCC(=O)O)C(=O)N[C@H](C(=O)NCC(=O)N1CCC[C@H]1C(=O)N[C@@H](CO)C(=O)N[C@@H](CO)C(=O)NCC(=O)N[C@@H](C)C(=O)N1CCC[C@H]1C(=O)N1CCC[C@H]1C(=O)N1CCC[C@H]1C(=O)N[C@@H](CO)C(N)=O)[C@@H](C)O)C(C)C)[C@@H](C)CC` [Example 45] (H-Y[Aib]EGTFISDYSI[αMeL]LDKK([AEEA-AEEA-γGlu-C20 diacid])HQ[Aib]DFVE[4Pal]LLETGPSSGAPPPS-NH2), the inhibitory constant (Ki) is over 909 nM. `CC[C@H](C)[C@H](NC(=O)[C@H](Cc1ccccc1)NC(=O)[C@@H](NC(=O)CNC(=O)[C@H](CCC(=O)O)NC(=O)C(C)(C)NC(=O)[C@@H](N)Cc1ccc(O)cc1)[C@@H](C)O)C(=O)N[C@@H](CO)C(=O)N[C@@H](CC(=O)O)C(=O)N[C@@H](Cc1ccc(O)cc1)C(=O)N[C@@H](CO)C(=O)N[C@H](C(=O)N[C@@](C)(CC(C)C)C(=O)N[C@@H](CC(C)C)C(=O)N[C@@H](CC(=O)O)C(=O)N[C@@H](CCCCN)C(=O)N[C@@H](CCCCNC(=O)COCCOCCNC(=O)COCCOCCNC(=O)CC[C@H](NC(=O)CCCCCCCCCCCCCCCCCCC(=O)O)C(=O)O)C(=O)N[C@@H](Cc1c[nH]cn1)C(=O)N[C@@H](CCC(N)=O)C(=O)NC(C)(C)C(=O)N[C@@H](CC(=O)O)C(=O)N[C@@H](Cc1ccccc1)C(=O)N[C@H](C(=O)N[C@@H](CCC(=O)O)C(=O)N[C@@H](Cc1ccc(O)cc1)C(=O)N[C@@H](CC(C)C)C(=O)N[C@@H](CC(C)C)C(=O)N[C@@H](CCC(=O)O)C(=O)N[C@@H](C)C(=O)NCC(=O)N1CCC[C@H]1C(=O)N[C@@H](CO)C(=O)N[C@@H](CO)C(=O)NCC(=O)N[C@@H](C)C(=O)N1CCC[C@H]1C(=O)N1CCC[C@H]1C(=O)N1CCC[C@H]1C(=O)N[C@@H](CO)C(N)=O)C(C)C)[C@@H](C)CC` [Example 68] (H-Y[Aib]EGTFISDYSI[αMeL]LDKK([AEEA-AEEA-γGlu-C20 diacid])HQ[Aib]DFVEYLLEAGPSSGAPPPS-NH2): the Ki is 421 nM.
